From patent US20130303788A1, “METHOD OF PRODUCING BIPHENOLIC COMPOUND, NOVEL BIPHENYL COMPOUND AND SYNTHESIS METHOD THEREOF, AND PHARMACEUTICAL COMPOSITION FOR TREATING PARKINSON'S DISEASE” (Tzu Chi University, priority 2012, published 2013)

Legend:
[1] = system: mouse model of PD (6-OHDA unilateral striatal lesion); test: Apomorphine-induced rotation test in 6-OHDA mouse model of PD; assay type: in vivo, NMRI mice
Method: The respective NMRI mouse was anesthetized with ketamine ([…], intraperitoneally). Subsequently, the respective NMRI mouse was placed into a stereotactic frame with nose and ear bars specially designed for mice. 6-hydroxydopamine (6-OHDA) was injected with saline containing 0.02% ascorbic acid (as a vehicle) into the right striatum of the respective NMRI mouse so that unilateral striatal lesion was induced (i.e., damage to dopaminergic neurons in the unilateral striatum was induced). The injection was conducted at a rate of 1 μL/minute using a Hamilton syringe at the following coordinates: AP: −0.9 mm; ML: −1.9 mm; DV: −2.2 mm with respect to bregma, and a final dose of 15 μg was administered. The needle was left standing for 5 minutes after the injection was finished, and was slowly withdrawn.
The respective NMRI mouse was allowed to habituate to the ambient environment for 10 minutes before the apomorphine-induced rotation test was performed. Apomorphine was then injected intraperitoneally into the respective NMRI mouse at a dose of 0.5 mg/kg. The respective NMRI mouse was placed in a glass bowl with a diameter of 20 cm and was attached to an automatic rotometer (TSE, Bad Homburg, Germany) via a specially designed harness. Each circular movement exceeding 30° was recorded. The contralateral movements (toward the nonlesioned side) and ipsilateral movements (toward the lesioned side) of the NMRI mice were counted during a period of 60 minutes. The net rotation was calculated according to the following formula:
where A=net rotation • B=the total number of ipsilateral movements during the period of 60 minutes • C=the total number of contralateral movements during the period of 60 minutes 4. Determination of TH (Tyrosine Hydroxylase) Expression Level and iNOS (Inducible Nitric Oxide Synthase) Expression Level: […]
6-OHDA was injected into NMRI mice according to the method as described in section 2 of General procedures. Product 1 or product 2 was administered intraperitoneally to the respective NMRI mouse at a dose of 5 mg/kg, 1 mg/kg, 0.5 mg/kg, 0.1 mg/kg, or 0.05 mg/kg for 14 consecutive days, starting on Day 7 after the 6-OHDA injection. NMRI mice into which a vehicle (saline containing 0.02% ascorbic acid) was injected (generally according to the method as described in section 2 of General Procedures, except that 6-OHDA was not injected), and which were not treated with product 1 or product 2 after the injection of the vehicle, served as a sham operated control. NMRI mice into which 6-OHDA was injected and which were not treated with product 1 or product 2 after the 6-OHDA injection served as a pathological control. The rotational behavior of the NMRI mice was evaluated using the apomorphine-induced rotation test as described in section 3 of General Procedures on Days 7, 14, and 21 after the 6-OHDA injection.

[2] = system: excitotoxicity induced by excitatory amino acids; details: Lin Yi-Ruu et al. (2006); cited from earlier work
[3] = system: TH (Tyrosine Hydroxylase); test: TH expression level (TH immunohistochemistry) in 6-OHDA mouse model of PD; assay type: in vivo, NMRI mice
Method: The respective NMRI mouse was deeply anaesthetized with thiopental (50 mg/kg, intraperitoneally). The respective NMRI mouse was perfused transcardially with a heparin solution (0.05% heparin in 0.1 M PBS), and was subsequently perfused with 100 mL of ice-cold fixative (4% paraformaldehyde in 0.1 M PBS). The brain of the respective NMRI mouse was removed and was postfixed in the same ice-cold fixative for 12 hours, followed by dehydration in 30% sucrose in 0.1 M PBS. The brain was frozen and was subjected to tissue slicing. Serial coronal sections (a thickness of 20 μm) were cut on a freezing microtome and were placed in PBS. The sections were later processed for free-floating TH or iNOS immunohistochemistry.
The sections were rinsed three times with PBS (30 minutes for each time), were treated with 3% H2O2/10% methanol in PBS for 30 minutes for quenching the endogenous peroxidase activity, and were rinsed three times with PBS. After preincubation with 0.5% normal goat serum (NGS)/0.2% Triton in PBS, the sections were incubated with a primary antibody (anti-TH antibody or anti-iNOS antibody, 1:5000, Novus Biologicals, Inc., Littleton, Colo., USA) in 0.5% NGS/PBS at 4° C. for 16-18 hours. After being rinsed three times with PBS, the sections were incubated with a biotinylated goat anti-rabbit IgG (1:200) in PBS for 1 hour. Subsequently, the sections were rinsed three times with PBS and were stained with 0.05% diaminobenzidine/0.03% H2O2 in PBS for 5 minutes. The respective section was placed on a gelatin-coated slide, dehydrated through ascending concentrations of alcohol, and covered with a slipcover for observation under a light microscope.
The obtained data were subjected to the statistical analysis as described in section 5 of General Procedures. TH expression level in the striatum was determined according to the method as described in section 4 of General Procedures.
TH expression level in the striatum and the substantia nigra (SN), and iNOS expression level in the striatum were determined according to the method as described in section 4 of General Procedures on Day 21 after the injection of 6-OHDA or the vehicle.
In addition, the optical density regarding the lesioned and unlesioned sites in the striatum and SN of the NMRI mice (e.g., the sham operated control, the pathological control, and the NMRI mice treated with product 1) was determined from the obtained photomicrographs illustrating TH expression level via ImageJ software (National Institutes of Health). The relative optical density was calculated using the following formula:
where J=relative optical density • K=optical density of the lesioned site • L=optical density of the unlesioned site

Which “unilateral rotations (apomorphine-induced), subchronic post-treatment, 0.1 mg/kg” value ([1]; 0.1 mg/kg i.p., 14 consecutive days starting Day 7 after 6-OHDA, FIG. 13) does the source give for C=CCc1ccc(O)c(-c2ccc(O)c(CC=C)c2)c1 [product 1, 5,3′-Diallyl-biphenyl-2,4′-diol] here?
The value was “not a low dose of product 1”.

And the “unilateral rotations (apomorphine-induced), subchronic post-treatment, 0.5 mg/kg” value ([1]; 0.5 mg/kg i.p., 14 consecutive days starting Day 7 after 6-OHDA, FIG. 13)?
The value was “significantly inhibited unilateral rotations”.

What about the “unilateral rotations (apomorphine-induced), subchronic post-treatment, 1 mg/kg” value ([1]; 1 mg/kg i.p., 14 consecutive days starting Day 7 after 6-OHDA, FIG. 13) of the same compound?
Its value is “significantly inhibited unilateral rotations”.

And the “contralateral movements induced by apomorphine, subchronic treatment” value ([1]; 5 mg/kg or 10 mg/kg i.p. for 14 consecutive days after 6-OHDA injection, FIG. 11)?
Its value is “significantly reduced the contralateral movements induced by apomorphine”.

What about the “apomorphine-induced rotation behavior after single administration” value ([1]; 5 mg/kg or 10 mg/kg i.p. once, 30 minutes before 6-OHDA, tested one week after 6-OHDA, data not shown) of the same compound?
Its value is “did not prevent the apomorphine-induced rotation behavior”.

What about the “neuroprotective effects via anti-oxidative abilities and antagonist actions against excitotoxicity” value [2] of the same compound?
Its value is “able to exert neuroprotective effects”.

And the “TH expression level in right (lesioned) striatum vs pathological control, subchronic treatment” value ([3]; 5 mg/kg i.p. for 14 consecutive days after 6-OHDA injection, FIG. 12)?
Its value is “significantly higher TH expression level”.

What about the “loss of TH-ir fibers in the striatum, subchronic post-treatment” value ([3]; i.p. 14 consecutive days starting Day 7, Day 21 after 6-OHDA, FIGS. 14, 15(A), 16) of the same compound?
The value was “significantly alleviated the loss of TH-ir fibers”.

And the “loss of TH-ir fibers in the substantia nigra (SN), subchronic post-treatment” value ([3]; i.p. 14 consecutive days starting Day 7, Day 21 after 6-OHDA, FIGS. 14, 15(B), 16)?
The value was “significantly alleviated the loss of TH-ir fibers”.
